Assay results as given in patent US20230126533A1, “Method of treating an inflammatory disorder” (The University of Miami, priority 2020, published 2023).
Starred links: 1 amine or outer side, 2 acyl side, 3 side chain; linkers in the order of their positions; H or OH if unused. Non-standard residues stand in square brackets, D forms with d. *: point of attachment. Tyr(Me) = O-methyl-tyrosine, COc1ccc(C[C@H](N[*:1])C(=O)[*:2])cc1; Phenylacetyl(2,3,4,5,6-F5) = O=C(Cc1c(F)c(F)c(F)c(F)c1F)*; Phe(F5) = N[C@@H](Cc1c(F)c(F)c(F)c(F)c1F)C(=O)O; hArg = N=C(N)NCCCC[C@H](N)C(=O)O; 12Ado = NCCCCCCCCCCCC(=O)O; Nle = CCCC[C@H](N)C(=O)O; Abu = CC[C@H](N)C(=O)O

What was measured:
[1] = system: PBMC of subjects with confirmed pulmonary sarcoidosis; assay: Apoptosis-related proteins in ex vivo sarcoidosis granuloma model (multiplex Elisa); assay type: cell-based, human; details: PBMC challenged with MAB microparticles 10:1, 48 h; for active caspase 3 concentration: 1 microM AVR
Excerpt: GHRHR antagonists induce apoptosis in cancer cells. The effects of GHRHR antagonist in immune cells still remains unclear. The ability of AVR to induce apoptosis in an ex vivo sarcoidosis model using PBMC of five subjects with confirmed pulmonary sarcoidosis was characterized.
PBMC samples were grouped as “control” (not challenged), “particles” (granuloma), “particles+AVR” (granuloma treated with 1 microM AVR), and “particles+Solu” (granuloma treated with methyl prednisolone as positive control). The “particle” groups were challenged with equal to 10:1 treatment with MAB microparticles. Media from all groups were removed 48 h after of treatments. Survivn, MCL-1/Bak Dimer, BClxL/Bak dimer, and active caspase 3 concentrations were measured using multiplex Elisa instrument and compared using t-test.

[2] = system: IL2, OAS1 and ISG15; assay: Cytokine expression (Western blot) in lungs of MAB microparticle challenged mice; assay type: in vivo; details: mouse models of Example 3; vs MAB microparticle challenge
Protocol: (§1) A mouse model of pulmonary sarcoidosis was previously established in C57B1/6 mice. Microparticles (Mycobacterium abscessus) developed in-house were administered intratracheally. The tongue was pulled out with a small spatula and microparticle was inserted into the trachea using a 20 G angio-catheter tube and advanced to main bronchus until reach to resistant. After tube placement, microparticles were administered (first dose of 50 μL=5×10^8, followed by up to 3 doses of 20 μL=2×10^8 of CFU of M. abscessus). The control group received only 20 μL PBS intratracheally.
(§2) One sarcoidosis group received AVR (“AVR group”), administered via subcutaneous injection, 5 microgram per mouse daily. Another sarcoidosis group received steroid treatment ([…], the current first line treatment for sarcoidosis) (“solu-medrol group”), and the final group received only saline (“granuloma group”). After 3 weeks mice were sacrificed and graded the inflammation in the lung samples.
The effects of AVR on IL2 (T helper 1 cytokine) and Type I interferon cytokines (OAS1 and ISG15) were measured and compared in the lungs of mice models prepared as set forth in Example 3.

[3] = system: C57B1/6 mice challenged with Mycobacterium abscessus (MAB) microparticles; assay: Lung inflammation score in mouse model of pulmonary sarcoidosis; assay type: in vivo; details: AVR 5 microgram per mouse daily subcutaneous, after 3 weeks, vs saline granuloma group
Protocol: as §1
The lung tissue was fixed in formalin and cut for histology. Developed noncaseating granuloma in the mouse lung was visualized with H&E staining and immunohistochemistry staining for CD68 macrophage marker, CD4 marker, and PD-L1.
as §2
Two mg of AVR-352 was added to 0.5 ml DMSO. After dissolving, 1,2-propanediol 10% was added to reach a volume of 40 ml. The fluid was sterilized by passing through a 0.22-micron filter. […]

[4] = system: iNOS; assay: iNOS expression in lungs of MAB microparticle challenged mice; assay type: in vivo; details: mouse models of Example 3; vs MAB microparticle alone
Protocol: as §1, §2
Inducible Nitric oxide synthase (iNOS) plays important role in immune response to microbes. NO can control the production of Th1 immune responses by modulating IL-12 expression. NO plays an important inhibitory role in Th17 differentiation. […] To test whether AVR reduces iNOS expression in an inflammation model, lungs from mouse models described in Example 3 were evaluated for iNOS.

[5] = system: CD209f gene; assay: RNASeq gene expression in lungs of MAB microparticle challenged mice; assay type: in vivo, mouse; details: challenged mice with AVR treatment vs challenged mice
Protocol: as §1, §2
Whole gene expression was analyzed using RNASeq. Harvested lung from control, challenged, and treatment groups generated as described in Example 3 were used. RNA was isolated and RNASeq was performed at Genomic center at University of Miami. […] A heatmap was generated for the differentiating genes between challenged mice with MAB microparticles versus challenged mice with AVR treatment.

Row | Compound | active caspase 3 concentration [1] | IL2 expression in lung [2] | ISG15 expression in lung [2] | OAS1 expression in lung [2] | lung inflammation score (percentage of lung inflammation) [3] | iNOS expression in the challenged lung [4] | CD209f gene expression in lung [5] | MCL-1/Bak dimer concentration [1]
1 | 5FPhAC-Ada-Tyr-DArg-Asp-Ala-Ile-5FPhe-Thr-Ala-Har-Tyr(Me)-Arg-Lys-Val-Leu-Abu-Gln-Leu-Ser-Ala-Arg-Lys-Leu-Leu-Gln-Asp-Ile-Nle-DArg-Har-Ada-NH2 ({Phenylacetyl(2,3,4,5,6-F5)-12Ado}-Y[dR]DAI[Phe(F5)]TA[hArg][Tyr(Me)]RKVL[Abu]QLSARKLLQDI[Nle][dR][hArg]-{12Ado-NH2}; SMILES CCCC[C@H](NC(=O)[C@@H](NC(=O)[C@H](CC(=O)O)NC(=O)[C@H](CCC(N)=O)NC(=O)[C@H](CC(C)C)NC(=O)[C@H](CC(C)C)NC(=O)[C@H](CCCCN)NC(=O)[C@H](CCCNC(=N)N)NC(=O)[C@H](C)NC(=O)[C@H](CO)NC(=O)[C@H](CC(C)C)NC(=O)[C@H](CCC(N)=O)NC(=O)[C@H](CC)NC(=O)[C@H](CC(C)C)NC(=O)[C@@H](NC(=O)[C@H](CCCCN)NC(=O)[C@H](CCCNC(=N)N)NC(=O)[C@H](Cc1ccc(OC)cc1)NC(=O)[C@H](CCCCNC(=N)N)NC(=O)[C@H](C)NC(=O)[C@@H](NC(=O)[C@H](Cc1c(F)c(F)c(F)c(F)c1F)NC(=O)[C@@H](NC(=O)[C@H](C)NC(=O)[C@H](CC(=O)O)NC(=O)[C@@H](CCCNC(=N)N)NC(=O)[C@H](Cc1ccc(O)cc1)NC(=O)CCCCCCCCCCCNC(=O)Cc1c(F)c(F)c(F)c(F)c1F)[C@@H](C)CC)[C@@H](C)O)C(C)C)[C@@H](C)CC)C(=O)N[C@H](CCCNC(=N)N)C(=O)N[C@@H](CCCCNC(=N)N)C(=O)NCCCCCCCCCCCC(N)=O) [AVR] | significantly increased | reduced significantly | reduced significantly | reduced significantly | significantly lower inflammation scores | significantly reduced MAB-induced increased iNOS expression | significantly downregulated | –
2 | C[C@H]1C[C@@H]2[C@H]([C@@H](O)C[C@@]3(C)[C@H]2CC[C@]3(O)C(=O)COC(=O)CCC(=O)[O-])[C@@]2(C)C=CC(=O)C=C12.[Na+] [Solu-Medrol, reference compound] | significantly increased | – | – | – | less effect than AVR | reduced MAB-induced increased iNOS expression | – | significantly reduced
